Experimental data taken from US20250353819A1, “ARYL HYDANTOIN COMPOUNDS AND METHODS OF USE” (priority 2022, published 2025).
Values joined by “and” are separate entries in the source; they are usually repeats but may differ in a detail not shown here. Equal values may be shown once. Read-outs that look alike come from different tables or passages of the source.

Experiments:
[1] = Pharmacokinetics in male Sprague Dawley rats; type: in vivo, rat; conditions: for Plasma Concentration: oral 1 mg/kg
Protocol: IV and oral formulations were prepared using the same method. On the day of dosing the solid compound was dissolved in DMSO prior to addition of a saline solution (0.9% w/v). The samples were then mixed using vortexing producing colourless solutions. The IV formulation was filtered through a 0.22 μm syringe filter prior to dosing and the oral formulation was dosed without filtration.
Samples of arterial blood were collected up to 168 h post-dose. Urine samples were not collected as animals were housed in bedded cages. Arterial blood was collected directly into borosilicate vials (at 4° C.) containing heparin as anticoagulant. Once collected, blood samples were centrifuged, supernatant plasma was removed and stored frozen (−80° C.) until analysis by LC-MS. A summary of the bioanalytical method and assay validation details is included in Tables 14 and 15.
Plasma concentration versus time data were analysed using non-compartmental methods (PKSolver Version 2.0). Standard calculations for each pharmacokinetic parameter are listed below.

[2] = Stability in human cryopreserved hepatocytes; type: in vitro ADME
[3] = molecular target: CYP 3A4 (Homo sapiens (Human), UniProt P08684); assay: CYP inhibition in human liver microsomes, 3A4
[4] = system: S. mansoni; assay: Antischistosomal screen in S. mansoni-infected mice; type: in vivo, Schistosoma mansoni; conditions: Schistosoma mansoni, single oral dose, mouse model
Text: Antischistosomal Screen. […] As described by Lombardo et al. (2019), cercariae of S. mansoni were obtained from infected Biomphalaria glabrata. By way of example, NMRI mice were infected subcutaneously with approximately 100 S. mansoni cercariae. […] Untreated mice (n=8) served as controls. At 21 d post-treatment, animals were killed by the CO2 method and dissected. Worms were removed by picking, then sexed and counted.

[5] = Whole blood-to-plasma ratio, mouse
[6] = LogD7.4 (shake flask); conditions: pH 7.4
[7] = molecular target: CYP 2C19 (Homo sapiens (Human), UniProt P33261); assay: CYP inhibition in human liver microsomes, 2C19; type: in vitro ADME
[8] = Stability in rat cryopreserved hepatocytes; type: in vitro ADME; conditions: Rat cryopreserved hepatocytes
[9] = Plasma protein binding (rapid equilibrium dialysis), human plasma; type: in vitro ADME; conditions: human, plasma, read-out: % bound (converted)
[10] = Mouse exposure / pharmacokinetic studies; type: in vivo, mice
[11] = molecular target: CYP 1A2 (Homo sapiens (Human), UniProt P05177); assay: CYP inhibition in human liver microsomes, 1A2; type: in vitro ADME
[12] = Whole blood-to-plasma ratio, rat; type: in vitro ADME
Protocol: As part of the assessment of the IV pharmacokinetics, an additional blood sample was collected from each rat at 1 h post dose for the purposes of determining the whole blood-to-plasma (B/P) ratio. Arterial blood was collected into tubes containing heparin. The haematocrit was determined via centrifugation (13000×g for 4 min using a Clemets® Microhematocrit centrifuge and Safecap® Plain Self-sealing Mylar Wrapped capillary tubes), and values ranged from 41% to 42%. Each blood aliquot ([…]) was collected and matrix matched with an equivalent volume of blank plasma. The remainder of the blood sample was centrifuged and […] plasma aliquot was collected and matrix matched with an equivalent volume of blank blood. Samples were frozen on dry ice and stored at −80° C. until analysis by LC-MS.

[13] = rats, IV 1 mg/kg, individual rats
[14] = rats, PO 1 mg/kg, individual rats

Chain of CYP 1A2 (P05177 whole entry): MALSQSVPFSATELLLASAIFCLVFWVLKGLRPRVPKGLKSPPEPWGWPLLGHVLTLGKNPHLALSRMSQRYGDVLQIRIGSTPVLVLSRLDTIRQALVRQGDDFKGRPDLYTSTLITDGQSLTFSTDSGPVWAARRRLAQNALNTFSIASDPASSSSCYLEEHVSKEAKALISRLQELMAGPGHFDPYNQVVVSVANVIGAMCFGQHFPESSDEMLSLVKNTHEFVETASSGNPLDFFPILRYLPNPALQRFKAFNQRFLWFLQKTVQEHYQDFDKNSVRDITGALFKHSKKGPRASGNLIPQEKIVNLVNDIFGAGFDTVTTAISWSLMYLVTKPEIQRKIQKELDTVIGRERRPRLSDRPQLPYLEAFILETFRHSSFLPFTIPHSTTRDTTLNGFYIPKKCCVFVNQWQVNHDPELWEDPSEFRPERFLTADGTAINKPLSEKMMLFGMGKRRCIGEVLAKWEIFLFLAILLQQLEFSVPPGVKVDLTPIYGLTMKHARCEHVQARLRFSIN
Chain of CYP 2C19 (P33261 whole entry): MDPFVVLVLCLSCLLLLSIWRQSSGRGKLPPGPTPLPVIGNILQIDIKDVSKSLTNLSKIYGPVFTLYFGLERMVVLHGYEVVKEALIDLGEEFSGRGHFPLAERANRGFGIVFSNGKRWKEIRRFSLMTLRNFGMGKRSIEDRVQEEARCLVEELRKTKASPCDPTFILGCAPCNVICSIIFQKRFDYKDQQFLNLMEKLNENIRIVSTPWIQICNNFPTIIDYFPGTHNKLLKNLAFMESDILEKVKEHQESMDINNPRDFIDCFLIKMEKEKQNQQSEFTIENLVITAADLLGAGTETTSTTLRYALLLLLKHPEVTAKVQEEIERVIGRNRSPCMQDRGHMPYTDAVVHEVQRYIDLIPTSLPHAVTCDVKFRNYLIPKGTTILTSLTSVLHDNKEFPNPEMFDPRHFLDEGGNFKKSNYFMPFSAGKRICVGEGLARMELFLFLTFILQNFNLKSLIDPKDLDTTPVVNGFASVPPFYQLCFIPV
Chain of CYP 3A4 (P08684 whole entry): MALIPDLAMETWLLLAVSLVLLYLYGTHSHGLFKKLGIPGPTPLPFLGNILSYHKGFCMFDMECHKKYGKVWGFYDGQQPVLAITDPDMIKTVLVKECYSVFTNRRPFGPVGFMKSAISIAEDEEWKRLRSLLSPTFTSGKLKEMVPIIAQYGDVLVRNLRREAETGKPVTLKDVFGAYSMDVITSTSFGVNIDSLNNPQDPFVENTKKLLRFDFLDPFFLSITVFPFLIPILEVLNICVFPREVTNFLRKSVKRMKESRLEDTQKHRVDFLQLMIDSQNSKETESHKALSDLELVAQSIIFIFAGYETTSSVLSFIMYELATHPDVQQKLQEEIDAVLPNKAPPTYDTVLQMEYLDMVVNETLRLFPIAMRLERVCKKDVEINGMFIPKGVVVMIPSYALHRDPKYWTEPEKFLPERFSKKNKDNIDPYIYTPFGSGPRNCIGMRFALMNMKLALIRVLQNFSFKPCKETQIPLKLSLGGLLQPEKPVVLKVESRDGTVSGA

CC1(C)NC(=O)N(c2ccc(F)c(C(C)(F)F)c2)C1=O [Compound IC, 3-(3-(1,1-difluoroethyl)-4-fluorophenyl)-5,5-dimethylimidazolidine-2,4-dione]
Plasma Concentration ([1]; 4.00 h, mean): 499 ng/mL | Plasma Concentration ([1]; 7.00 h, individual rats): 612 ng/mL and 559 ng/mL and 455 ng/mL | Plasma Concentration ([1]; 7.00 h, mean): 542 ng/mL | Plasma Concentration ([1]; 24.00 h, individual rats): 365 ng/mL and 309 ng/mL and 390 ng/mL | Plasma Concentration ([1]; 24.00 h, mean): 355 ng/mL | Plasma Concentration ([1]; 36.00 h, individual rats): 294 ng/mL and 183 ng/mL and 254 ng/mL | Plasma Concentration ([1]; 36.00 h, mean): 243 ng/mL | Plasma Concentration ([1]; 48.00 h, individual rats): 188 ng/mL and 94 ng/mL and 170 ng/mL | Plasma Concentration ([1]; 48.00 h, mean): 151 ng/mL | Plasma Concentration ([1]; 72.00 h, individual rats): 82.4 ng/mL and 58.1 ng/mL and 31.5 ng/mL | Plasma Concentration ([1]; 72.00 h, mean): 57 ng/mL | Plasma Concentration ([1]; 96.00 h, individual rats): 32.0 ng/mL and 5.1 ng/mL and 28.5 ng/mL | Plasma Concentration ([1]; 96.00 h, mean): 21.8 ng/mL | Plasma Concentration ([1]; 144.00 h, individual rats): 2.9 ng/mL and 4.4 ng/mL | Plasma Concentration ([1]; 144.00 h, mean): 3.7 ng/mL | adverse reactions or compound-related side effects ([1]; rats, 7-day sampling period after IV or oral 1 mg/kg): no adverse reactions or compound-related side effects | Apparent t1/2 [1, 13]: 14 h | Blood CL [1, 13]: 0.589 mL/min/kg and 0.808 mL/min/kg | Blood Vss [1, 13]: 0.991 L/kg and 1.19 L/kg | Plasma AUCIV [1, 13]: 23.6 µg·h/mL and 17.2 µg·h/mL | Plasma CL [1, 13]: 0.707 mL/min/kg and 0.970 mL/min/kg | Plasma Vss [1, 13]: 1.19 L/kg and 1.43 L/kg | Apparent t1/2 ([1]; rats, IV 1 mg/kg, mean (n = 3)): 15 h | Plasma AUCIV ([1]; rats, IV 1 mg/kg, mean (n = 3)): 20.6 µg·h/mL | time for which measurable plasma concentrations were observed ([1]; rats, IV and oral 1 mg/kg): up to 6 days | Apparent t1/2 [1, 14]: 13 h and 19 h | BA [1, 14]: 113% and 85.5% and 99.2% | Plasma AUCoral [1, 14]: 17.6 µg·h/mL | Plasma Cmax [1, 14]: 559 ng/mL and 543 ng/mL | Tmax [1, 14]: 1.0 h and 7.0 h and 12 h | Apparent t1/2 ([1]; rats, PO 1 mg/kg, mean (n = 3)): 16 h | Plasma Cmax ([1]; rats, PO 1 mg/kg, mean (n = 3)): 572 ng/mL | CLint [2]: <1 μL/min/10^6 | IC50 [3]: > 20 µM | ED50 ([4]; adult stage, read-out: S. mansoni ED50, adult): 20 mg/kg | ED50 ([4]; juvenile stage, read-out: S. mansoni ED50, juvenile): 23 mg/kg | B:P [5]: 0.95 | LogD7.4 (shake flask) [6]: 2.1 | logD [6]: 2.1 | IC50 [7]: > 20 µM | CLint [8]: <1 μL/min/10^6 | fraction unbound [9]: 0.34 | clearance ([10]; male, Swiss outbred, mouse, in vivo, iv, 1 mg/kg, mice, IV, mean dose 1.0 mg/kg, read-out: Plasma CL): 1.96 mL/min/kg | AUC(0-t) ([10]; male, Swiss outbred, mouse, in vivo, 100 mg/kg PO in mice, read-out: AUC0-last): 1560 µg·h/mL | Cmax ([10]; male, Swiss outbred, mouse, in vivo, 100 mg/kg PO in mice, read-out: Cmax): 40000 ng/mL | AUC(0-t) ([10]; male, Swiss outbred, mouse, in vivo, mice, IV, mean dose 1.0 mg/kg, read-out: Plasma AUC0-48 h): 8.48 µg·h/mL | AUC(0-inf) ([10]; male, Swiss outbred, mouse, in vivo, mice, IV, mean dose 1.0 mg/kg, read-out: Plasma AUC0-inf): 8.52 µg·h/mL | half-life ([10]; male, Swiss outbred, mouse, plasma, mice, IV, mean dose 1.0 mg/kg, read-out: Apparent t1/2 (converted)): 8.9 h | PlasmaVSS ([10]; mice, IV, mean dose 1.0 mg/kg): 1.64 L/kg | IC50 [11]: > 20 µM | B:P [12]: 1.2
